Data from patent US8889874B2, “Imidazolone-chalcone derivatives as potential anticancer agent and process for the preparation thereof” (Council of Scientific and Industrial Research, priority 2010, dated 2014).
Read-outs that look alike come from different tables or passages of the source.

Legend:
Assay in all cases: NCI anticancer screen, SRB assay, 48 h
Type in all cases: cell-based, human
[1] = system: A549/ATCC (non-small cell lung); details: Homo sapiens
Procedure, shortened: (§1)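 Sulforhodamine B protein assay read cell growth after 48 h of continuous compound exposure. Dose-response curves per cell line used at least five 10-fold-diluted concentrations, within a panel of fifty-three human lines from nine tumour types.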

[2] = system: ACHN (renal); details: Homo sapiens
Procedure, shortened: as §1

[3] = system: CAKI-1 (renal); details: Homo sapiens
Procedure, shortened: as §1

[4] = system: COLO 205 (colon); details: Homo sapiens, COLO 205
Procedure, shortened: as §1

[5] = system: EKVX (non-small cell lung); details: Homo sapiens
Procedure, shortened: as §1

[6] = system: HCT-116 (colon); details: Homo sapiens
Procedure, shortened: as §1

[7] = system: HOP-62 (non-small cell lung); details: Homo sapiens
Procedure, shortened: as §1

[8] = system: HT29 (colon); details: Homo sapiens
Procedure, shortened: as §1

[9] = system: KM12 (colon); details: Homo sapiens
Procedure, shortened: as §1

[10] = system: M14 (melanoma); details: Homo sapiens
Procedure, shortened: as §1

[11] = system: MALME-3M (melanoma); details: Homo sapiens
Procedure, shortened: as §1

[12] = system: NCI-H226 (non-small cell lung); details: Homo sapiens
Procedure, shortened: as §1

[13] = system: NCI-H23 (non-small cell lung); details: Homo sapiens
Procedure, shortened: as §1

[14] = system: NCI-H322M (non-small cell lung); details: Homo sapiens
Procedure, shortened: as §1

[15] = system: NCI-H522 (non-small cell lung); details: Homo sapiens
Procedure, shortened: as §1

[16] = system: NCI/ADR-RES (ovarian); details: Homo sapiens, NCI/ADR-RES
Procedure, shortened: as §1

[17] = system: OVCAR-3 (ovarian); details: Homo sapiens
Procedure, shortened: as §1

[18] = system: OVCAR-4 (ovarian); details: Homo sapiens
Procedure, shortened: as §1

[19] = system: OVCAR-8 (ovarian); details: Homo sapiens
Procedure, shortened: as §1

[20] = system: RPMI-8226 (leukemia cell line); details: Homo sapiens
Procedure, shortened: as §1

[21] = system: RXF 393 (renal); details: Homo sapiens
Procedure, shortened: as §1

[22] = system: SK-MEL-2 (melanoma); details: Homo sapiens
Procedure, shortened: as §1

[23] = system: SK-MEL-28 (melanoma); details: Homo sapiens
Procedure, shortened: as §1

[24] = system: SK-OV-3 (ovarian); details: Homo sapiens
Procedure, shortened: as §1

[25] = system: SNB-19 (CNS); details: Homo sapiens
Procedure, shortened: as §1

[26] = system: SNB-75 (CNS); details: Homo sapiens
Procedure, shortened: as §1

[27] = system: TD-47D (breast); details: Homo sapiens
Procedure, shortened: as §1

[28] = system: UACC-257 (melanoma); details: Homo sapiens
Procedure, shortened: as §1

[29] = system: UACC-62 (melanoma); details: Homo sapiens
Procedure, shortened: as §1

[30] = system: UO-31 (renal); details: Homo sapiens
Procedure, shortened: as §1

[31] = 48 h exposure, SRB, read-out: GI50
[32] = read-out: pGI50 (-log of molar concentration causing 50% inhibition of net cell growth) (converted)

For `COc1cc(/C=C/C(=O)c2cccc(-n3cc(-c4ccc(Cl)cc4)[nH]c3=O)c2)ccc1O` [3f, 4-(4-chlorophenyl)-1-3-[(E)-3-(4-hydroxy-3-methoxyphenyl)-2-propenoyl]phenyl-2,3-dihydro-1H-2-imidazolone], the GI50 [1, 31] was 6.78 µM, the GI50 [1, 32] was 6.76 µM and the GI50 [2, 31] was 2.19 µM. For the same compound, the GI50 [2, 32] was 2.19 µM, the GI50 [3, 31] was 2.64 µM and the GI50 [3, 32] was 2.63 µM. It also gave a GI50 ([4]; COLO205, read-out: pGI50 (-log of molar concentration causing 50% inhibition of net cell growth) (converted)) of 3.39 µM, a GI50 [4, 31] of 3.4 µM and a GI50 [5, 31] of 9.61 µM. For the same compound, the GI50 [5, 32] was 9.55 µM, the GI50 [6, 31] was 1.46 µM and the GI50 [6, 32] was 1.45 µM. For the same compound, the GI50 [7, 31] was 2.84 µM, the GI50 [7, 32] was 2.82 µM and the GI50 ([8]; HT-29, 48 h exposure, SRB, read-out: GI50) was 2.97 µM. For the same compound, the GI50 ([8]; HT-29, read-out: pGI50 (-log of molar concentration causing 50% inhibition of net cell growth) (converted)) was 2.95 µM, the GI50 [9, 31] was 1.48 µM and the GI50 [9, 32] was 1.48 µM. The GI50 [10, 31] was 2.86 µM, the GI50 [10, 32] was 2.88 µM and the GI50 ([11]; Malme-3M, read-out: pGI50 (-log of molar concentration causing 50% inhibition of net cell growth) (converted)) was 3.09 µM. The GI50 ([11]; MALME-3M, 48 h exposure, SRB, read-out: GI50) was 3.06 µM, the GI50 [12, 31] was 2.77 µM and the GI50 [12, 32] was 2.75 µM. For the same compound, the GI50 [13, 31] was 3.18 µM, the GI50 [13, 32] was 3.16 µM and the GI50 [14, 31] was 4.58 µM. The GI50 [14, 32] was 4.57 µM, the GI50 [15, 31] was 2.36 µM and the GI50 [15, 32] was 2.34 µM. It also gave a GI50 ([16]; NCl/ADR-RES, 48 h exposure, SRB, read-out: GI50) of 2.28 µM, a GI50 [16, 32] of 2.29 µM and a GI50 [17, 31] of 1.56 µM. It also gave a GI50 [17, 32] of 1.55 µM, a GI50 [18, 31] of 4.64 µM and a GI50 [18, 32] of 4.68 µM. For the same compound, the GI50 [19, 31] was 4.18 µM, the GI50 [19, 32] was 4.17 µM and the GI50 [20, 31] was 1.33 µM. It also gave a GI50 [20, 32] of 1.32 µM, a GI50 ([21]; RXF 393, 48 h exposure, SRB, read-out: GI50) of 6.4 µM and a GI50 ([21]; RXF-393, read-out: pGI50 (-log of molar concentration causing 50% inhibition of net cell growth) (converted)) of 6.46 µM. It also gave a GI50 [22, 31] of 3.66 µM, a GI50 [22, 32] of 3.63 µM and a GI50 [23, 31] of 2.06 µM. For the same compound, the GI50 [23, 32] was 2.04 µM, the GI50 [24, 31] was 3.19 µM and the GI50 [24, 32] was 3.16 µM. It also gave a GI50 [25, 31] of 3.17 µM, a GI50 [25, 32] of 3.16 µM and a GI50 [26, 31] of 2.75 µM. The GI50 [26, 32] was 2.75 µM, the GI50 [27, 31] was 3.09 µM and the GI50 [27, 32] was 3.09 µM. The GI50 [28, 31] was 8.69 µM, the GI50 [28, 32] was 8.71 µM and the GI50 [29, 31] was 2.74 µM. It also gave a GI50 [29, 32] of 2.75 µM, a GI50 [30, 31] of 1.67 µM and a GI50 [30, 32] of 1.66 µM.
